Data as given in the NIST ThermoML archive (doi:10.1016/j.fluid.2008.08.012).

Legend:
[1] = for mass density: 298.15 K, 101.33 kPa; for mass density / vapor or sublimation pressure: Liquid; for vapor or sublimation pressure: Ebulliometric method (Recirculating still); for surface tension liquid-gas: 303.15 K, Maximal bubble pressure
[2] = refractive index (Na D-line) (dimensionless); conditions: 298.15 K; 101.33 kPa; Liquid; Standard Abbe refractometry
[3] = xn = mol fraction of the nth substance listed; conditions: 303.15 K, Maximal bubble pressure

COC(C)(C)C [2-methoxy-2-methylpropane]
Conditions | mass density [kg/m3] | refractive index | surface tension liquid-gas [mN/m]
[1] | 735.45 | – | 18.7
[2] | – | 1.36766 | –

[1]
Conditions | vapor or sublimation pressure [kPa]
301.31 K | 38.06
303.21 K | 41.03
305.59 K | 45.05
308.33 K | 50.06
310.85 K | 55.05
313.2 K | 60.06
315.39 K | 65.03
317.47 K | 70.07
319.41 K | 75.05
321.27 K | 80.08
323.02 K | 85.05
324.7 K | 90.06
325.98 K | 94
326.31 K | 95.05
328.24 K | 101.34

COC(C)(C)C [2-methoxy-2-methylpropane] + C1CCCCC1
[3]
Conditions | surface tension liquid-gas [mN/m]
x1 = 0.046 | 23.39
x1 = 0.1 | 22.97
x1 = 0.205 | 22.23
x1 = 0.308 | 21.57
x1 = 0.409 | 21.03
x1 = 0.51 | 20.58
x1 = 0.614 | 20.12
x1 = 0.716 | 19.71
x1 = 0.816 | 19.34
x1 = 0.901 | 19.05
x1 = 0.947 | 18.89

COC(C)(C)C [2-methoxy-2-methylpropane] + CC(C)=O
[3]
Conditions | surface tension liquid-gas [mN/m]
x1 = 0.031 | 22.14
x1 = 0.074 | 21.76
x1 = 0.171 | 21.13
x1 = 0.272 | 20.59
x1 = 0.378 | 20.09
x1 = 0.484 | 19.75
x1 = 0.585 | 19.47
x1 = 0.681 | 19.22
x1 = 0.784 | 18.98
x1 = 0.884 | 18.74
x1 = 0.94 | 18.55

CC(C)=O [acetone]
Conditions | mass density [kg/m3] | refractive index | surface tension liquid-gas [mN/m]
[1] | 784.23 | – | 22.45
[2] | – | 1.35732 | –

Conditions | vapor or sublimation pressure [kPa]
[1], 327.16 K | 94

C1CCCCC1 [cyclohexane]
Conditions | mass density [kg/m3] | refractive index | surface tension liquid-gas [mN/m]
[1] | 773.84 | – | 24.1
[2] | – | 1.42508 | –

Conditions | vapor or sublimation pressure [kPa]
[1], 351.37 K | 94
